From patent US12251422B2, “Compositions and methods for treating neurological and other disorders” (Rush University Medical Center, priority 2018, dated 2025) come the findings set out here.

The target of assay [1] is T1, C-terminal TIR domain of TLR2 protein (cTLR2) (Mus musculus, UniProt Q9QUN7).
T1 construct: The cTLR2 (640-784 amino acids) tagged with c-myc was cloned in lenti vector; made in house; host or cells: HEK293 cells (lentiviral expression)
Put plainly: Surface plasmon resonance binding of TIDM peptides to cTLR2. How it is done: TLR2 full-length construct (pLenti-cmyc-DDK/tlr2) was purchased from Origene. The cTLR2 (640-784 amino acids) tagged with c-myc was cloned in lenti vector using TOPO TA cloning kit (K5310-00; Life technologies). Briefly, a kozak sequence was incorporated in the upstream of C-terminal TIR domain of TLR2. Next, cTLR2 was cloned in lentivector followed by packaging in lentivirus using HEK293FT cells. After 48 h, media was collected and concentrated with Lenti-X Concentrator (Cat #631231; Clontech). This concentrated lentiviral sup was used for viral transduction. The cTLR2 protein was isolated from HEK293 cell lysate by passing through Myc affinity column. Purified protein was desalted and concentrated by using 10 kD molecular cut-off filtration system.
To analyze the binding of TLR2 with TIDM peptides, surface plasmon resonance (SPR) experiments were carried out using a Reichert 4SPR instrument (Reichert Technologies, Buffalo, NY). Binding assay was performed using a 500 kDa Carboxymethyl Dextran Gold Sensor Slide (Reichert Inc.) for capturing TLR2. Protein immobilization was at a flow rate of 30 μl/min in PBS for 3 min with 0.8 mg/mL solution of TLR2. For analyte association, different concentrations of wtTIDM and mTIDM peptides in PBS running buffer were injected for 2.5 min at a rate of 30 μl/min followed by a dissociation phase of 3 min. The sensor surface was regenerated after each dissociation cycle by allowing buffer to flow at 40 μl/min for a minimum of 15 min. Signals obtained for the TLR2-bound surface were subtracted by signals obtained for the reference cell according to standard procedure using the system software. The concentration dependence of the subtracted signal was analyzed to determine binding affinity of TLR2 with wtTIDM and mTIDM peptides.

In another assay the target is T2, cTLR2 protein (Mus musculus, UniProt Q9QUN7).
T2 construct: The cTLR2 (640-784 amino acids) tagged with c-myc was cloned in lenti vector; made in house; host or cells: HEK293 cells (lentiviral expression)
Put plainly: Thermal shift assay of cTLR2 with TIDM peptides. It counts as binding. The following applies: 10 μM peptide. The method, then: Thermal shift assays were performed in an Applied Biosystems 7500 standard real-time thermal cycler machine as described before (52, 53). For each reaction, purified protein (0.5 μg to 1 μg) was added to 18 μL of thermal shift buffer provided with the kit, and 1-2 μL of dye. Reaction was set 96 well PCR plate in the dark and then placed in the thermal cycler machine using the following two-stage program [(25° C. for 2 mins) 1 cycle; ([…]) 70 cycles; auto increment 1° C. for both stages]. The filter was set at ROX with no quencher filter and no passive filter.

For the next assay, the system named is EAE mice. Put plainly: Experimental allergic encephalomyelitis (EAE) in C57/BL6 mice. Type of assay: in vivo, mouse. The following applies: 0.1 mg/kg body wt/d intranasal from 10 dpi. The text has this:
FIG. 7 (A-V). The wtTIDM, but not mTIDM, peptide protects mice from experimental allergic encephalomyelitis (EAE) and collagen-induced arthritis (CIA). […] Mice (n=6 per group in two independent experiments) were scored daily. […] On 22 dpi, general motor activities were monitored using the Ethovision XT 13.0 Open Field Activity System (Noldus) (B, heat-map images representing overall motor activities; C, distance travelled; D, rearing; E, velocity; F, acceleration) and rotorod (G). Foot print analysis (H, stride length; I, print length; J, sway length; K, toe spread) was also performed, L) CIA was induced in male DBA/1J mice by bovine type II collagen immunization and from 29 dpi, mice were treated with wtTIDM and mTIDM peptides (1 mg/kg body wt/d) via i.p. injection. Mice (n=6 per group in two independent experiments) were scored daily. […] On 60 dpi, general motor activities were monitored by Ethovision System (M, heat-map images representing overall motor activities; N, distance travelled; O, rearing; P, velocity), rotorod (Q) and grip strength (R). Foot print analysis (S, stride length; T, print length; U, sway length; V, toe spread) was also performed. Six mice (n=6 per group) were used in two independent experiments. ap<0.001 & bp<0.05 vs control; cp<0.001 & dp<0.05 vs EAE or CIA by two-sample t-tests.
FIG. 25 (A-D). Footprint analysis of EAE mice after treatment with wtTIDM and mTIDM peptides. On the walking track, we applied white paper strips and obtained the footprints of mice of different groups (A, control; B, EAE; C, EAE+wtTIDM; D, EAE+mTIDM) on paper using black ink. A total of 30-40 steps for each group were determined. Four different footprint measurements, viz., stride length (SL), print length (PL), sway length (SWL), and toe spread (TS) were calculated in centimeters from the recorded prints of mice. While SL refers the distance between the front edge of two consecutive prints of the same paw, SWL refers the distance between the paws perpendicular to the distance of travel and PL indicates the measurement of length of print area. […]

Another assay deals with 5×FAD Tg mice. Put plainly: Tau phosphorylation in hippocampus of 5×FAD Tg mice. It counts as in vivo, mouse. As to conditions: 0.1 mg/kg body wt/2 d intranasal, 30 d. The method, then: FIG. 22 (A-B). Intranasal delivery of wtTIDM, but not mTIDM, peptide decreases the phosphorylation of tau in the hippocampus of Tg mice. […] B) Bands were scanned and values (P-Tau/Tau) presented as relative to non-Tg control. Results were analyzed by two-sample t-tests.
B6SJL-Tg (APPSwFlLon,PSEN1*M146L*L286V) 6799Vas/J transgenic (5×FAD or termed here as Tg) mice were purchased from Jackson Laboratories (Bar Harbor, ME). […] Briefly, TIDM peptides were dissolved in 5 μl normal saline, mice were hold in supine position and saline was delivered into one nostril using a pipetman.

T1 sequence (Q9QUN7 640-784): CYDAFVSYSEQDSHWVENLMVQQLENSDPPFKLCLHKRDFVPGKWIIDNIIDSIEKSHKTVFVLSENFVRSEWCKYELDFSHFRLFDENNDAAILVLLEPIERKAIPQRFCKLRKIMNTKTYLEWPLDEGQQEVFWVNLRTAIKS
T2 sequence (Q9QUN7 640-784): as above

The molecule `CC[C@H](C)[C@H](NC(=O)[C@H](CCCCN)NC(=O)[C@@H](NC(=O)[C@H](CCC(N)=O)NC(=O)[C@H](CCCNC(=N)N)NC(=O)[C@@H](N)CC(=O)O)[C@@H](C)CC)C(=O)N[C@@H](Cc1c[nH]c2ccccc12)C(=O)N[C@@H](Cc1ccccc1)C(=O)N[C@@H](CCC(N)=O)C(=O)N[C@@H](CC(N)=O)C(=O)N[C@@H](CCCNC(=N)N)C(=O)N[C@@H](CCCNC(=N)N)C(=O)N[C@@H](CCSC)C(=O)N[C@@H](CCCCN)C(=O)N[C@@H](Cc1c[nH]c2ccccc12)C(=O)N[C@@H](CCCCN)C(=O)N[C@@H](CCCCN)C(=O)N1CCC[C@H]1C(=O)NCC(=O)N[C@@H](Cc1c[nH]c2ccccc12)C(=O)N[C@@H](Cc1c[nH]cn1)C(=O)N[C@@H](CCC(N)=O)C(=O)N[C@@H](CC(=O)O)C(=O)O` [mTIDM, drqikiwfqnrrmkwkkPGWHQD] had a Kd in assay [1] of 19 µM. Moreover, the “shift (ΔTm) of melting temperature of cTLR2” value at cTLR2 protein amounted to 0.87 °C. Moreover, the “clinical symptoms of EAE” value in the assay on EAE mice is on record as “had no effect”.

Turning to `CC[C@H](C)[C@H](NC(=O)[C@H](CCCCN)NC(=O)[C@@H](NC(=O)[C@H](CCC(N)=O)NC(=O)[C@H](CCCNC(=N)N)NC(=O)[C@@H](N)CC(=O)O)[C@@H](C)CC)C(=O)N[C@@H](Cc1c[nH]c2ccccc12)C(=O)N[C@@H](Cc1ccccc1)C(=O)N[C@@H](CCC(N)=O)C(=O)N[C@@H](CC(N)=O)C(=O)N[C@@H](CCCNC(=N)N)C(=O)N[C@@H](CCCNC(=N)N)C(=O)N[C@@H](CCSC)C(=O)N[C@@H](CCCCN)C(=O)N[C@@H](Cc1c[nH]c2ccccc12)C(=O)N[C@@H](CCCCN)C(=O)N[C@@H](CCCCN)C(=O)N1CCC[C@H]1C(=O)NCC(=O)N[C@@H](C)C(=O)N[C@@H](Cc1c[nH]cn1)C(=O)N[C@@H](CCC(N)=O)C(=O)N[C@@H](CCCCN)C(=O)O` [wtTIDM, drqikiwfqnrrmkwkkPGAHQK], in assay [1], the affinity, expressed as Kd, was 8 µM. The “affinity for cTLR2 stronger than mTIDM” value in assay [1] (ratio of Kd values) was “approximately 2.5 times”. The “shift (ΔTm) of melting temperature of cTLR2” value on cTLR2 protein amounted to 4.96 °C. Further, in the assay with 5×FAD Tg mice, the “phospho-tau in the hippocampus” value is recorded as “suppression” and the “total level of tau protein” value was “without affecting”. Besides, the “clinical symptoms of EAE” value in the assay on EAE mice was “strongly inhibited”. The “locomotor activities and footprints in EAE mice” value in the assay on EAE mice (22 dpi) is recorded as “improved”.
